# Data reported in patent publication US10821115B2, “Compounds that inhibit Mcl-1 protein” (priority 2017, dated 2020).
# Like-named read-outs stand apart in the source and are kept apart here.
# Experiments:
# [1] = system: human multiple myeloma cell line, OPM-2; test: Cell viability assay (OPM-2 10 FBS), CellTiter-Glo; assay type: cell-based
# Procedure, shortened: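 Cells were seeded at 3000 cells/well in RPMI 1640 with 10% FBS and exposed to serially diluted compounds for 16 h at 37 °C, 5% CO2.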
# [2] = molecular target: recombinant human Mcl-1 (residues 171-327) / Bim interaction (Homo sapiens (Human), UniProt Q07820); test: biochemical; assay type: binding; conditions: read-out: Mcl-1 HTRF IC50
# [3] = Homo sapiens, OPM-2, 16 h, read-out: OPM-2 10% FBS IC50 IP, OPM-2 cells, 10% FBS, 16 h incubation
# [4] = 0.1 nM Mcl-1(171-327), 0.05 nM biotin-Bim (51-76)
# [5] = Homo sapiens, OPM-2, 16 h, read-out: OPM-2 10% FBS IC50 IP, OPM-2 cells, 10% FBS, 16 h, CellTiter-Glo
# [6] = TR-FRET, Mcl-1(171-327) / biotin-Bim (51-76)
# [7] = read-out: OPM-2 10% FBS IC50 IP, OPM-2 cells, 10% FBS, 16 h, CellTiter-Glo
# recombinant human Mcl-1 (residues 171-327) / Bim interaction, sequence (Q07820 171-327): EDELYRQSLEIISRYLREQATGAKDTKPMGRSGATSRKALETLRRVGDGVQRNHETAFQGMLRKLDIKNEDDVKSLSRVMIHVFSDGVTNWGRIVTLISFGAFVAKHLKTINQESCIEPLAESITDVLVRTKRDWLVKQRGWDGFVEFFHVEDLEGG
SMILES,"IC50 [1, 3]","IC50 [2, 4]","IC50 [1, 5]","IC50 [2, 6]","IC50 [1, 7]"
"COCC[C@H]1[C@@H](C)C/C=C/[C@](CN2CCN3CCOC[C@@H]3C2)(OC)[C@@H]2CC[C@H]2CN2C[C@@]3(CCCc4cc(Cl)ccc43)COc3ccc(nc32)C(=O)NS1(=O)=O [Example 22, (1S,3′R,6′R,7′S,8′E,11′S,12′S)-6-chloro-7′-((9aS)-hexahydropyrazino[2,1-c][1,4]oxazin-8(1H)-ylmethyl)-7′-methoxy-12′-(2-methoxyethyl)-11′-methyl-3,4-dihydro-2H,15′H-spiro[naphthalene-1,22′-[20]oxa[13]thia[1,14,25]triazatetracyclo [14.7.2.0~3,6~.0~19,24~]pentacosa[8,16,18,24]tetraen]-15′-one 13′,13′-dioxide]",2230 nM,0.669 nM,–,–,–
"CO[C@@]1([C@H](C)O)CCC[C@H](C)[C@@H](C)S(=O)(=O)NC(=O)c2ccc3c(c2)N(C[C@@H]2CC[C@H]21)C[C@@]1(CCCc2cc(Cl)ccc21)CO3 (single isomer, unassigned) [Example 100482]",–,–,105 nM,0.183 nM,–
"CCOC1(CN2CCN(C(C)C)CC2)/C=C/C[C@H](C)[C@@H](C)S(=O)(=O)NC(=O)c2ccc3c(c2)N(C[C@@H]2CC[C@H]21)C[C@@]1(CCCc2cc(Cl)ccc21)CO3 (stereo in doubt) [Example 115, (1S,3′R,6′R,7′R,8′E,11′S,12′R)-6-chloro-7′-ethoxy-11′,12′-dimethyl-7′-((4-(1-methylethyl)-1-piperazinyl)methyl)-3,4-dihydro-2H,15′H-spiro[naphthalene-1,22′-[20]oxa[13]thia[1,14]diazatetracyclo [14.7.2.0~3,6~.0~19,24~]pentacosa[8,16,18,24]tetraen]-15′-one 13′,13′-dioxide]",686 nM,1.37 nM,–,–,–
"CO[C@]1(CN2CC(N3CCOCC3)C2)/C=C/C[C@H](C)[C@@H](C)S(=O)(=O)NC(=O)c2ccc3c(c2)N(C[C@@H]2CC[C@H]21)C[C@@]1(CCCc2cc(Cl)ccc21)CO3 [Example 84, (1S,3′R,6′R,7′R,8′E,11′S,12′R)-6-chloro-7′-methoxy-11′,12′-dimethyl-7′-((3-(4-morpholinyl)-1-azetidinyl)methyl)-3,4-dihydro-2H,15′H-spiro[naphthalene-1,22′-[20]oxa[13]thia[1,14]diazatetracyclo [14.7.2.0~3,6~.0~19,24~]pentacosa[8,16,18,24]tetraen]-15′-one 13′,13′-dioxide]",61 nM,0.106 nM,–,–,–
"C[C@@H]1[C@@H](C)C/C=C/[C@](O)(Cc2ccnc(C#N)c2)[C@@H]2CC[C@H]2CN2C[C@@]3(CCCc4cc(Cl)ccc43)COc3ccc(cc32)C(=O)NS1(=O)=O [Example 100188, 4-(((1S,3′R,6′R,7′R,8′E,11′S,12′R)-6-chloro-7′-hydroxy-11′,12′-dimethyl-13′,13′-dioxido-15′-oxo-3,4-dihydro-2H-spiro[naphthalene-1,22′-[20]oxa[13]thia[1,14]diazatetracyclo [14.7.2.0~3,6~.0~19,24~]pentacosa[8,16,18,24]tetraen]-7′-yl)methyl)-2-pyridinecarbonitrile]",–,–,–,0.877 nM,735 nM
"CO[C@@]1(CC(=O)N2CCN3CCOC[C@H]3C2)/C=C/C[C@H](C)[C@@H](C)S(=O)(=O)NC(=O)c2ccc3c(c2)N(C[C@@H]2CC[C@H]21)C[C@@]1(CCCc2cc(Cl)ccc21)CO3 [Example 100411, (1S,3′R,6′R,7′S,8′E,11′S,12′R)-6-chloro-7′-(2-((9aR)-hexahydropyrazino[2,1-c][1,4]oxazin-8(1H)-yl)-2-oxoethyl)-7′-methoxy-11′,12′-dimethyl-3,4-dihydro-2H,15′H-spiro[naphthalene-1,22′-[20]oxa[13]thia[1,14]diazatetracyclo [14.7.2.0~3,6~.0~19,24~]pentacosa[8,16,18,24]tetraen]-15′-one 13′,13′-dioxide]",–,–,2100 nM,0.584 nM,–
"CCO[C@]1(CN2CCN3CCCC[C@@H]3C2)/C=C/C[C@H](C)[C@@H](C)S(=O)(=O)NC(=O)c2ccc3c(c2)N(C[C@@H]2CC[C@H]21)C[C@@]1(CCCc2cc(Cl)ccc21)CO3 [Example 108, (1S,3′R,6′R,7′R,8′E,11′S,12′R)-6-chloro-7′-ethoxy-11′,12′-dimethyl-7′-((9aR)-octahydro-2H-pyrido[1,2-a]pyrazin-2-ylmethyl)-3 ,4-dihydro-2H,15′H-spiro[naphthalene-1,22′-[20]oxa[13]thia[1,14]diazatetracyclo [14.7.2.0~3,6~.0~19,24~]pentacosa[8,16,18,24]tetraen]-15′-one 13′,13′-dioxide]",116 nM,0.198 nM,–,–,–
"COC1CCN(C[C@]2(OC)/C=C/C[C@H](C)[C@@H](C)S(=O)(=O)NC(=O)c3ccc4c(c3)N(C[C@@H]3CC[C@H]32)C[C@@]2(CCCc3cc(Cl)ccc32)CO4)CC1 [Example 117, (1S,3′R,6′R,7′S,8′E,11′S,12′R)-6-chloro-7′-methoxy-7′-((4-methoxy-1-piperidinyl)methyl)-11′,12′-dimethyl-3,4-dihydro-2H,15′H-spiro[naphthalene-1,22′-[20]oxa[13]thia[1,14]diazatetracyclo [14.7.2.0~3,6~.0~19,24~]pentacosa[8,16,18,24]tetraen]-15′-one 13′,13′-dioxide]",358 nM,0.352 nM,–,–,–
"C[C@@H]1[C@@H](C)CCC[C@@](O)(CS(=O)(=O)N(C)C(C)(C)C)[C@@H]2CC[C@H]2CN2C[C@@]3(CCCc4cc(Cl)ccc43)COc3ccc(cc32)C(=O)NS1(=O)=O [Example 100170, 1-((1S,3′R,6′R,7′S,11′S,12′R)-6-chloro-7′-hydroxy-11′,12′-dimethyl-13′,13′-dioxido-15′-oxo-3,4-dihydro-2H-spiro[naphthalene-1,22′-[20]oxa[13]thia[1,14]diazatetracyclo [14.7.2.0~3,6~.0~19,24~]pentacosa[16,18,24]trien]-7′-yl)-N-methyl-N-(2-methyl-2-propanyl)methanesulfonamide]",–,–,–,12.1 nM,7820 nM
"CO[C@@]1(CN2CCC(N(C)C)CC2)/C=C/C[C@H](C)[C@@H](C)S(=O)(=O)NC(=O)c2ccc3c(c2)N(C[C@@H]2CC[C@H]21)C[C@@]1(CCCc2cc(Cl)ccc21)CO3 [Example 118, (1S,3′R,6′R,7′S,8′E,11′S,12′R)-6-chloro-7′-((4-(dimethylamino)-1-piperidinyl)methyl)-7′-methoxy-11′,12′-dimethyl-3,4-dihydro-2H,15′H-spiro[naphthalene-1,22′-[20]oxa[13]thia[1,14]diazatetracyclo [14.7.2.0~3,6~.0~19,24~]pentacosa[8,16,18,24]tetraen]-15′-one 13′,13′-dioxide]",558 nM,0.215 nM,–,–,–
"CCOC(=O)COC[C@]1(OCC(=O)OCC)CCCC[C@@H](CC)S(=O)(=O)NC(=O)c2ccc3c(c2)N(C[C@@H]2CC[C@H]21)C[C@@]1(CCCc2cc(Cl)ccc21)CO3 [Example 100042, ethyl (((1S,3′R,6′R,7′S,12′R)-6-chloro-7′-(2-ethoxy-2-oxoethoxy)-12′-ethyl-13′,13′-dioxido-15′-oxo-3,4-dihydro-2H-spiro[naphthalene-1,22′-[20]oxa[13]thia[1,14]diazatetracyclo [14.7.2.0~3,6~.0~19,24~]pentacosa[16,18,24]trien]-7′-yl)methoxy)acetate]",–,–,2220 nM,4.86 nM,–
"C[C@@H]1[C@@H](C)CCC[C@@](O)(Cc2ccncn2)[C@@H]2CC[C@H]2CN2C[C@@]3(CCCc4cc(Cl)ccc43)COc3ccc(cc32)C(=O)NS1(=O)=O [Example 100114, (1S,3′R,6′R,7′R,11′S,12′R)-6-chloro-7′-hydroxy-11′,12′-dimethyl-7′-(4-pyrimidinylmethyl)-3,4-dihydro-2H,15′H-spiro[naphthalene-1,22′-[20]oxa[13]thia[1,14]diazatetracyclo [14.7.2.0~3,6~.0~19,24~]pentacosa[16,18,24]trien]-15′-one 13′,13′-dioxide]",–,–,–,1.05 nM,491 nM
"C[C@@H]1[C@@H](C)C/C=C/[C@@](C)(OCc2cc(F)cc(F)c2)[C@@H]2CC[C@H]2CN2C[C@@]3(CCCc4cc(Cl)ccc43)COc3ccc(cc32)C(=O)NS1(=O)=O (single isomer, unassigned) [Example 100474]",–,–,387 nM,0.405 nM,–
"Cc1ccc([C@]2(O)/C=C/C[C@H](C)[C@@H](C)S(=O)(=O)NC(=O)c3ccc4c(c3)N(C[C@@H]3CC[C@H]32)C[C@@]2(CCCc3cc(Cl)ccc32)CO4)nc1 (single isomer, unassigned) [Example 100439]",–,–,2640 nM,0.619 nM,–
"CO[C@@]1(C[C@@H](O)C2CC2)/C=C/C[C@H](C)[C@@H](C)S(=O)(=O)NC(=O)c2ccc3c(c2)N(C[C@@H]2CC[C@H]21)C[C@@]1(CCCc2cc(Cl)ccc21)CO3 (single isomer, unassigned) [Example 100461]",–,–,–,0.042 nM,382 nM
"CO[C@@]1(CO)CCC[C@H](C)[C@@H](C)S(=O)(=O)NC(=O)c2ccc3c(c2)N(C[C@@H]2CC[C@H]21)C[C@@]1(CCCc2cc(Cl)ccc21)CO3 (stereo in doubt) [Example 100133, (1S,3′R,6′R,7′S,11′S,12′R)-6-chloro-7′-(hydroxymethyl)-7′-methoxy-11′,12′-dimethyl-3,4-dihydro-2H,15′H-spiro[naphthalene-1,22′-[20]oxa[13]thia[1,14]diazatetracyclo [14.7.2.0~3,6~.0~19,24~]pentacosa[16,18,24]rien]-15′-one 13′,13′-dioxide]",–,–,–,0.885 nM,984 nM
